# Assay results from ChEMBL document CHEMBL4411296, “Design and development of Isatin-triazole hydrazones as potential inhibitors of microtubule affinity-regulating kinase 4 for the therapeutic management of cell proliferation and metastasis” (Eur J Med Chem, 2019).
# Activity calls are given as the source filed them. No cut-off for these calls is given here.
# Key:
# K562 = assay: Growth inhibition of human K562 cells assessed as cell growth at 10 uM after 48 hrs by sulforhodamine B assay relative to control; assay type: functional; conditions: K562, 48 h, read-out: Activity
# SR = assay: Growth inhibition of human SR cells assessed as cell growth at 10 uM after 48 hrs by sulforhodamine B assay relative to control; assay type: functional; conditions: read-out: Activity
# HOP-92 = assay: Growth inhibition of human HOP92 cells assessed as cell growth at 10 uM after 48 hrs by sulforhodamine B assay relative to control; assay type: functional; conditions: HOP-92, 48 h, read-out: Activity
# NCI-H23 = assay: Growth inhibition of human NCI-H23 cells assessed as cell growth at 10 uM after 48 hrs by sulforhodamine B assay relative to control; assay type: functional; conditions: NCI-H23, 48 h, read-out: Activity
# NCI-H522 = assay: Growth inhibition of human NCI-H522 cells assessed as cell growth at 10 uM after 48 hrs by sulforhodamine B assay relative to control; assay type: functional; conditions: NCI-H522, 48 h, read-out: Activity
# COLO 205 = assay: Growth inhibition of human COLO205 cells assessed as cell growth at 10 uM after 48 hrs by sulforhodamine B assay relative to control; assay type: functional; conditions: COLO 205, 48 h, read-out: Activity
# HCC 2998 = assay: Growth inhibition of human HCC2998 cells assessed as cell growth at 10 uM after 48 hrs by sulforhodamine B assay relative to control; assay type: functional; conditions: HCC 2998, 48 h, read-out: Activity
# HT-29 = assay: Growth inhibition of human HT-29 cells assessed as cell growth at 10 uM after 48 hrs by sulforhodamine B assay relative to control; assay type: functional; conditions: HT-29, 48 h, read-out: Activity
# KM12 = assay: Growth inhibition of human KM12 cells assessed as cell growth at 10 uM after 48 hrs by sulforhodamine B assay relative to control; assay type: functional; conditions: KM12, 48 h, read-out: Activity
# SW-620 = assay: Growth inhibition of human SW620 cells assessed as cell growth at 10 uM after 48 hrs by sulforhodamine B assay relative to control; assay type: functional; conditions: SW-620, 48 h, read-out: Activity
# SF-295 = assay: Growth inhibition of human SF295 cells assessed as cell growth at 10 uM after 48 hrs by sulforhodamine B assay relative to control; assay type: functional; conditions: SF-295, 48 h, read-out: Activity
# SF-539 = assay: Growth inhibition of human SF539 cells assessed as cell growth at 10 uM after 48 hrs by sulforhodamine B assay relative to control; assay type: functional; conditions: SF-539, 48 h, read-out: Activity
# SNB-19 = assay: Growth inhibition of human SNB19 cells assessed as cell growth at 10 uM after 48 hrs by sulforhodamine B assay relative to control; assay type: functional; conditions: SNB-19, 48 h, read-out: Activity
# U-251 = assay: Growth inhibition of human U251 cells assessed as cell growth at 10 uM after 48 hrs by sulforhodamine B assay relative to control; assay type: functional; conditions: U-251, 48 h, read-out: Activity
# LOX IMVI = assay: Growth inhibition of human LOXIMVI cells assessed as cell growth at 10 uM after 48 hrs by sulforhodamine B assay relative to control; assay type: functional; conditions: read-out: Activity
# Malme-3M = assay: Growth inhibition of human MALME-3M cells assessed as cell growth at 10 uM after 48 hrs by sulforhodamine B assay relative to control; assay type: functional; conditions: read-out: Activity
# SK-MEL-2 = assay: Growth inhibition of human SK-MEL-2 cells assessed as cell growth at 10 uM after 48 hrs by sulforhodamine B assay relative to control; assay type: functional; conditions: SK-MEL-2, 48 h, read-out: Activity
# OVCAR-4 = assay: Growth inhibition of human OVCAR4 cells assessed as cell growth at 10 uM after 48 hrs by sulforhodamine B assay relative to control; assay type: functional; conditions: OVCAR-4, 48 h, read-out: Activity
# NCI/ADR-RES = assay: Growth inhibition of human NCI/ADR-RES cells assessed as cell growth at 10 uM after 48 hrs by sulforhodamine B assay relative to control; assay type: functional; conditions: read-out: Activity
# SK-OV-3 = assay: Growth inhibition of human SKOV3 cells assessed as cell growth at 10 uM after 48 hrs by sulforhodamine B assay relative to control; assay type: functional; conditions: SK-OV-3, 48 h, read-out: Activity
# ACHN = assay: Growth inhibition of human ACHN cells assessed as cell growth at 10 uM after 48 hrs by sulforhodamine B assay relative to control; assay type: functional; conditions: read-out: Activity
# UO-31 = assay: Growth inhibition of human UO31 cells assessed as cell growth at 10 uM after 48 hrs by sulforhodamine B assay relative to control; assay type: functional; conditions: UO-31, 48 h, read-out: Activity
# PC-3 = assay: Growth inhibition of human PC3 cells assessed as cell growth at 10 uM after 48 hrs by sulforhodamine B assay relative to control; assay type: functional; conditions: PC-3, 48 h, read-out: Activity
# MDA-MB-231 = assay: Growth inhibition of human MDA-MB-231 cells assessed as cell growth at 10 uM after 48 hrs by sulforhodamine B assay relative to control; assay type: functional; conditions: MDA-MB-231, 48 h, read-out: Activity
# Hs-578T = assay: Growth inhibition of human Hs 578T cells assessed as cell growth at 10 uM after 48 hrs by sulforhodamine B assay relative to control; assay type: functional; conditions: read-out: Activity
# BT-549 = assay: Growth inhibition of human BT549 cells assessed as cell growth at 10 uM after 48 hrs by sulforhodamine B assay relative to control; assay type: functional; conditions: BT-549, 48 h, read-out: Activity
# T47D = assay: Growth inhibition of human T47D cells assessed as cell growth at 10 uM after 48 hrs by sulforhodamine B assay relative to control; assay type: functional; conditions: read-out: Activity
# MCF7 [1] = assay: Induction of apoptosis in human MCF7 cells assessed as early apoptotic cells at IC50 after 24 hrs by Annexin V-FITC/propidium iodide staining-based flow cytometric analysis (reference value: 1.23%); assay type: functional
# MCF7 [2] = assay: Induction of apoptosis in human MCF7 cells assessed as necrotic cells at IC50 after 24 hrs by Annexin V-FITC/propidium iodide staining-based flow cytometric analysis (reference value: 0.27%); assay type: functional
# HepG2 = assay: Antimigratory activity against human HepG2 cells at IC50 after 48 hrs by wound-healing assay; assay type: functional, cell-based
# [3] = target: Serine/threonine-protein kinase MARK1 (Homo sapiens) (UniProt Q9P0L2); assay: Inhibition of MARK1 (unknown origin) at 10 uM after 60 mins by ADP-Glo luminescence assay
# Chain of Serine/threonine-protein kinase MARK1 (Homo sapiens) (Q9P0L2 whole entry, looked up, the tested form may be a part): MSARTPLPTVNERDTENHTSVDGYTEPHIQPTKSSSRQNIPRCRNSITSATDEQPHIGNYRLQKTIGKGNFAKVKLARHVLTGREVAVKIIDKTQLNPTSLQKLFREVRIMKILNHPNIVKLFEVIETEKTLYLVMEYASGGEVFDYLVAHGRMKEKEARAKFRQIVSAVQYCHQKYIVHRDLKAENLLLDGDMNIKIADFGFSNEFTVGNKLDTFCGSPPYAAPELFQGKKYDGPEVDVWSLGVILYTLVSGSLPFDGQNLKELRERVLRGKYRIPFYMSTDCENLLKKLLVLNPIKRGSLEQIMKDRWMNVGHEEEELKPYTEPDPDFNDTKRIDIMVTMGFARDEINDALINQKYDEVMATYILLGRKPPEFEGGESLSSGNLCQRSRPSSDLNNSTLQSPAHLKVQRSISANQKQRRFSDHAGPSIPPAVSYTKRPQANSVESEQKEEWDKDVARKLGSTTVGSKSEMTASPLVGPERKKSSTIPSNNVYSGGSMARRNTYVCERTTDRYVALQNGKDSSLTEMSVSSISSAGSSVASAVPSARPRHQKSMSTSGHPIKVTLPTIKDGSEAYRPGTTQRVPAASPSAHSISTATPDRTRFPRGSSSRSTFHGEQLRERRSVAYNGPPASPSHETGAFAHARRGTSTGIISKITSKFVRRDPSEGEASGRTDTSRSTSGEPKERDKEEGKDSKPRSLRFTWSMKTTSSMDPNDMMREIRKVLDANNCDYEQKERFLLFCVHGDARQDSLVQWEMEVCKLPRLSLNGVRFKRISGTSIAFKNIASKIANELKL
# [4] = target: PAS domain-containing serine/threonine-protein kinase (Homo sapiens) (UniProt Q96RG2); assay: Inhibition of PASK (unknown origin) at 10 uM after 60 mins by ADP-Glo luminescence assay
# Chain of PAS domain-containing serine/threonine-protein kinase (Homo sapiens) (Q96RG2 whole entry, the tested form may be a part): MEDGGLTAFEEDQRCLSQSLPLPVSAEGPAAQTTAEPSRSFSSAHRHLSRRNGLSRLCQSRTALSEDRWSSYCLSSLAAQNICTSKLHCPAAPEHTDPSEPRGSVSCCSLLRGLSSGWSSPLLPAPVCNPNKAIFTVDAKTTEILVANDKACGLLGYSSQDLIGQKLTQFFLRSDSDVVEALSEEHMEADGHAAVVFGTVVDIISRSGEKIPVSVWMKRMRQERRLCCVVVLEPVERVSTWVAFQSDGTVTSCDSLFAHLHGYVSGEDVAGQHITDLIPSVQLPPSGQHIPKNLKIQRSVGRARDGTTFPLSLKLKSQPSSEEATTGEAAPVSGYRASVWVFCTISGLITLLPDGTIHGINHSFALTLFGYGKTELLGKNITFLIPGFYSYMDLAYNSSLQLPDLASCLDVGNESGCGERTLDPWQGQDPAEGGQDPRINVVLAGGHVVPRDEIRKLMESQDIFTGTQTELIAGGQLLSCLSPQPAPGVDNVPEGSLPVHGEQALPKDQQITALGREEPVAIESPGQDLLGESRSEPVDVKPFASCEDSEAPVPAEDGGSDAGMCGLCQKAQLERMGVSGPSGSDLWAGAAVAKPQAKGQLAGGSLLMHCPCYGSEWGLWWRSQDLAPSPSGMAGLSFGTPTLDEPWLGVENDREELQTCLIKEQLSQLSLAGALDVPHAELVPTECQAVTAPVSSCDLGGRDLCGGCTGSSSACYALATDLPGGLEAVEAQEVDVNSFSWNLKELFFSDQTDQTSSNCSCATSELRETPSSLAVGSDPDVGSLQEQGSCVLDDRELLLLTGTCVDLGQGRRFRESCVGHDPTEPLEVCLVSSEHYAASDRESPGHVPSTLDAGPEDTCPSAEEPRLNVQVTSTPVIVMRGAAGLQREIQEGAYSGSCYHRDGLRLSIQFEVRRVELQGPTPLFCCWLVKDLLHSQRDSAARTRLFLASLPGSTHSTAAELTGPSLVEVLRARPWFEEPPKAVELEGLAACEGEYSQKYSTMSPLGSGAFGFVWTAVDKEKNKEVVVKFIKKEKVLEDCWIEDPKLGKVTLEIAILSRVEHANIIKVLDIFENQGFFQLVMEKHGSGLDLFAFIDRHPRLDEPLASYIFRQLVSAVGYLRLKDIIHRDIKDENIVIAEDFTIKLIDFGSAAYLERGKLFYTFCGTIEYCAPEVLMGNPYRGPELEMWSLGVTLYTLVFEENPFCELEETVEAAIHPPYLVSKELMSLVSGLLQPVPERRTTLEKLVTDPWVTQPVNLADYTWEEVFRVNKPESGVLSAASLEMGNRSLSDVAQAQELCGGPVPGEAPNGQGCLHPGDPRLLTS
# [5] = target: Serine/threonine-protein kinase pim-1 (Homo sapiens) (UniProt P11309); assay: Inhibition of PIM1 (unknown origin) at 10 uM after 60 mins by ADP-Glo luminescence assay
# Chain of Serine/threonine-protein kinase pim-1 (Homo sapiens) (P11309 whole entry, looked up): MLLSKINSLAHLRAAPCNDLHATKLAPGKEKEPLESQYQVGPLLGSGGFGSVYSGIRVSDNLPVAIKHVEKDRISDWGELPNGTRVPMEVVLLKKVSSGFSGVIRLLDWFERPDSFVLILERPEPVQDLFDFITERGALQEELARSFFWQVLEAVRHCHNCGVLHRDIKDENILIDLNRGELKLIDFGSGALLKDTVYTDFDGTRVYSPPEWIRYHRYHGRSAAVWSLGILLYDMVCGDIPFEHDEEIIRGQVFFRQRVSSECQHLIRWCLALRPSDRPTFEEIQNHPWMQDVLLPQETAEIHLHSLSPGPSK
# [6] = target: Ribosomal protein S6 kinase beta-1 (Homo sapiens) (UniProt P23443); assay: Inhibition of S6K (unknown origin) at 10 uM after 60 mins by ADP-Glo luminescence assay
# Chain of Ribosomal protein S6 kinase beta-1 (Homo sapiens) (P23443 whole entry, looked up): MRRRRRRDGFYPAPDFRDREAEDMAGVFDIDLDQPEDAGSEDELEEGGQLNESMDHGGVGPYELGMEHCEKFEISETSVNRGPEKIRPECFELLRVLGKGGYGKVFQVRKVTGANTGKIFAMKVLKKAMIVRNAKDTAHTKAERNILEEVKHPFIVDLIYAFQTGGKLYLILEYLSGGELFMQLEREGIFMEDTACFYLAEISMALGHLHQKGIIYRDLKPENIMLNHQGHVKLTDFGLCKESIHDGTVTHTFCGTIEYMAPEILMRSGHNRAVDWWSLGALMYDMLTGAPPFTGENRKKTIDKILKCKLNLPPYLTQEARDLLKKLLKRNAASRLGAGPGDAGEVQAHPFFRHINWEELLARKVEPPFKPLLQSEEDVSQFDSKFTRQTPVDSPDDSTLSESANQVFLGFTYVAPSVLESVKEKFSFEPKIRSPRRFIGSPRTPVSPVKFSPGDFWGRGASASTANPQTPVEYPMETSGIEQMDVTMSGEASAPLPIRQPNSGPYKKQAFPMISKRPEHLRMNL
SMILES,growth at 10 µM (K562) [%],growth at 10 µM (SR) [%],growth at 10 µM (HOP-92) [%],growth at 10 µM (NCI-H23) [%],growth at 10 µM (NCI-H522) [%],growth at 10 µM (COLO 205) [%],growth at 10 µM (HCC 2998) [%],growth at 10 µM (HT-29) [%],growth at 10 µM (KM12) [%],growth at 10 µM (SW-620) [%],growth at 10 µM (SF-295) [%],growth at 10 µM (SF-539) [%],growth at 10 µM (SNB-19) [%],growth at 10 µM (U-251) [%],growth at 10 µM (LOX IMVI) [%],growth at 10 µM (Malme-3M) [%],growth at 10 µM (SK-MEL-2) [%],growth at 10 µM (OVCAR-4) [%],growth at 10 µM (NCI/ADR-RES) [%],growth at 10 µM (SK-OV-3) [%],other results
COc1ccc(Cn2cc(C(=O)N/N=C3/C(=O)Nc4c(Cl)cccc43)nn2)cc1,89.2,80.3,105,99.3,84,114,99.3,97,107,99.7,109,108,93.6,102,93.8,99.7,93.2,104,105,113,growth at 10 µM (ACHN): 111%; growth at 10 µM (UO-31): 93.5%; growth at 10 µM (PC-3): 96.7%; growth at 10 µM (MDA-MB-231): 98.5%; growth at 10 µM (Hs-578T): 97.5%; growth at 10 µM (BT-549): 111%; growth at 10 µM (T47D): 100%
COc1ccc(Cn2cc(C(=O)N/N=C3/C(=O)Nc4ccc(F)cc43)nn2)cc1,97.2,102,98.8,99.5,86.1,111,99.3,91.8,95.8,103,95.4,107,96.8,99.9,102,104,109,101,96.7,98.9,growth at 10 µM (ACHN): 110%; growth at 10 µM (UO-31): 93.2%; growth at 10 µM (PC-3): 98.4%; growth at 10 µM (MDA-MB-231): 106%; growth at 10 µM (Hs-578T): 111%; growth at 10 µM (BT-549): 116%; growth at 10 µM (T47D): 85.9%
COc1ccc(Cn2cc(C(=O)N/N=C3/C(=O)Nc4ccc(Cl)cc43)nn2)cc1,91.2,80.6,116,104,90.6,117,107,93.7,97.7,99.7,108,106,98.5,107,108,95,99,100,115,119,growth at 10 µM (ACHN): 107%; growth at 10 µM (UO-31): 90.7%; growth at 10 µM (PC-3): 94.9%; growth at 10 µM (MDA-MB-231): 113%; growth at 10 µM (Hs-578T): 112%; growth at 10 µM (BT-549): 116%; growth at 10 µM (T47D): 101%
COc1ccc(Cn2cc(C(=O)N/N=C3/C(=O)Nc4c(C)cccc43)nn2)cc1,63.2,76.6,51.3,89.1,77.5,108,101,67.5,95.6,57.5,111,80.1,97.5,108,75.3,40.5,91.9,-28.2,71.2,110,Activity (MCF7 [1]): 33.5%; Activity (MCF7 [2]): 0.75%; Activity (HepG2): Active; inhibition [3]: inactive; inhibition [4]: inactive; inhibition [5]: inactive; inhibition [6]: inactive; growth at 10 µM (ACHN): 38.2%; growth at 10 µM (UO-31): 14.8%; growth at 10 µM (PC-3): 61.3%; growth at 10 µM (MDA-MB-231): 51%; growth at 10 µM (Hs-578T): 84.1%; growth at 10 µM (BT-549): 103%; growth at 10 µM (T47D): 81%
